Laboratory results: patent publication US20050209157A1, “Short bioactive peptides and methods for their use” (priority 2001, published 2005)
≈ marks a conversion by molar mass, not a printed value. No end group written: not given here.

What was measured:
[1] = tested on: Escherichia coli ATCC 25922; experiment: Antimicrobial assay I, modified protocol (tryptic soy broth), MBC; details: minimum bactericidal concentration, Table 4
[2] = tested on: Pseudomonas aeruginosa ATCC 27853; experiment: as above; details: minimum bactericidal concentration, Table 4
[3] = tested on: Stapholococcus aureus ATCC 25923; experiment: as above; details: minimum bactericidal concentration, Table 4
[4] = tested on: Candida albicans ATCC 10231; experiment: Antimicrobial assay I, modified protocol (tryptic soy broth), MFC; details: minimum fungicidal concentration, Table 4

Row | Compound | MBC E. coli A.25922 [1] | MBC P. aerug A.27853 [2] | MBC S. aur A.25923 [3] | MFC Candida A.10231 [4]
1 | CC(C)C[C@H](NC(=O)[C@H](C)NC(=O)[C@H](CCCCN)NC(=O)[C@H](CCCCN)NC(=O)[C@H](C)NC(=O)[C@H](CC(C)C)NC(=O)[C@H](CCCCN)NC(=O)[C@H](C)NC(=O)[C@H](CC(C)C)NC(=O)[C@H](CC(C)C)NC(=O)[C@H](CCCCN)NC(=O)[C@H](C)NC(=O)[C@@H](N)Cc1ccc(O)cc1)C(N)=O [compound 155] | >250 µg/mL | >250 µg/mL | >250 µg/mL | >250 µg/mL
2 | CC(C)C[C@H](NC(=O)[C@H](C)NC(=O)[C@H](CC(C)C)NC(=O)[C@H](C)NC(=O)[C@H](CC(C)C)NC(=O)[C@H](CCCCN)NC(=O)[C@H](C)NC(=O)[C@H](CC(C)C)NC(=O)[C@H](CCCCN)NC(=O)[C@H](CCCCN)NC(=O)[C@H](CC(C)C)NC(=O)[C@H](CCCCN)NC(=O)[C@H](CCCCN)NC(=O)[C@H](C)NC(=O)[C@H](CC(C)C)NC(=O)[C@H](CCCCN)NC(=O)[C@H](CCCCN)NC(=O)[C@H](C)NC(=O)[C@@H](N)Cc1ccccc1)C(=O)O [27C] | 10 µg/mL (≈ 4.77 µM) | 4 µg/mL (≈ 1.91 µM) | >40 µg/mL | >40 µg/mL
3 | CC(C)C[C@H](NC(=O)[C@H](CCCCN)NC(=O)[C@H](CCCCN)NC(=O)[C@H](C)NC(=O)[C@H](CC(C)C)NC(=O)[C@H](CCCCN)NC(=O)[C@H](C)NC(=O)[C@H](CCCCN)NC(=O)[C@H](CCCCN)NC(=O)[C@H](C)NC(=O)[C@H](CC(C)C)NC(=O)[C@H](CCCCN)NC(=O)[C@H](CCCCN)NC(=O)[C@H](C)NC(=O)[C@@H](N)Cc1ccccc1)C(N)=O [compound 77] | >50 µg/mL | >50 µg/mL | >50 µg/mL | >50 µg/mL
4 | FAFAKIIAKIAKKII-NH2 [compound 140] | INACT | INACT | INACT | INACT
5 | FAKLA-NH2 [compound 128] | INACT | INACT | INACT | INACT
6 | CC(C)C[C@H](NC(=O)[C@H](C)NC(=O)[C@H](CCCCN)NC(=O)[C@H](CCCCN)NC(=O)[C@H](CC(C)C)NC(=O)[C@H](C)NC(=O)[C@H](CCCCN)NC(=O)[C@H](CC(C)C)NC(=O)[C@H](CC(C)C)NC(=O)[C@H](C)NC(=O)[C@@H](N)Cc1ccccc1)C(N)=O [compound 171] | 75 µg/mL (≈ 61.7 µM) | 100 µg/mL (≈ 82.3 µM) | >250 µg/mL | 50 µg/mL (≈ 41.2 µM)
7 | CC(C)C[C@H](NC(=O)[C@H](CC(C)C)NC(=O)[C@H](CCCCN)NC(=O)[C@H](CCCCN)NC(=O)[C@H](C)NC(=O)[C@H](CC(C)C)NC(=O)[C@H](CCCCN)NC(=O)[C@H](C)NC(=O)[C@@H](N)Cc1ccccc1)C(N)=O [compound 60] | >50 µg/mL | >50 µg/mL | >50 µg/mL | >50 µg/mL
8 | CC(C)C[C@H](NC(=O)[C@H](CC(C)C)NC(=O)[C@H](CCCCN)NC(=O)[C@H](C)NC(=O)[C@H](CC(C)C)NC(=O)[C@H](C)NC(=O)[C@H](CCCCN)NC(=O)[C@H](CCCCN)NC(=O)[C@H](C)NC(=O)[C@H](CC(C)C)NC(=O)[C@H](CCCCN)NC(=O)[C@H](C)NC(=O)[C@@H](N)Cc1ccccc1)C(N)=O [compound 148] | 150 µg/mL (≈ 106 µM) | >250 µg/mL | >250 µg/mL | 100 µg/mL (≈ 70.7 µM)
9 | FALALKA-NH2 [compound 141] | INACT | INACT | INACT | INACT
10 | FAFGKGIGKIGKKGL-NH2 [compound 138] | INACT | INACT | INACT | INACT
11 | CC(C)C[C@H](NC(=O)[C@H](CCCCN)NC(=O)[C@H](CC(C)C)NC(=O)[C@H](Cc1c[nH]c2ccccc12)NC(=O)[C@H](CCCCN)NC(=O)[C@H](CCCCN)NC(=O)[C@H](C)NC(=O)[C@H](Cc1c[nH]c2ccccc12)NC(=O)[C@H](CCCCN)NC(=O)[C@H](CCCCN)NC(=O)[C@H](Cc1c[nH]c2ccccc12)NC(=O)[C@H](CC(C)C)NC(=O)[C@@H](N)CCCCN)C(=O)N[C@@H](Cc1c[nH]c2ccccc12)C(=O)N[C@@H](CCCCN)C(=O)N[C@@H](C)C(=O)O [compound 164] | 25 µg/mL (≈ 11.7 µM) | 25 µg/mL (≈ 11.7 µM) | 25 µg/mL (≈ 11.7 µM) | 25 µg/mL (≈ 11.7 µM)
12 | CC(C)C[C@H](NC(=O)[C@H](CC(C)C)NC(=O)[C@H](CCCCN)NC(=O)[C@H](C)NC(=O)[C@H](CC(C)C)NC(=O)[C@H](C)NC(=O)[C@H](CCCCN)NC(=O)[C@H](CCCCN)NC(=O)[C@H](C)NC(=O)[C@H](CC(C)C)NC(=O)[C@H](CCCCN)NC(=O)[C@H](C)NC(=O)[C@@H](N)CCCCN)C(N)=O [compound 149] | 150 µg/mL (≈ 108 µM) | >250 µg/mL | >250 µg/mL | 100 µg/mL (≈ 71.7 µM)
13 | CC(C)C[C@H](NC(=O)[C@H](CCCCN)NC(=O)[C@H](C)NC(=O)[C@H](CCCCN)NC(=O)[C@H](C)NC(=O)[C@H](CC(C)C)NC(=O)[C@H](CCCCN)NC(=O)[C@H](C)NC(=O)[C@H](CC(C)C)NC(=O)[C@H](CC(C)C)NC(=O)[C@H](CCCCN)NC(=O)[C@H](C)NC(=O)[C@@H](N)Cc1ccccc1)C(N)=O [compound 65] | >55 µg/mL | >50 µg/mL | >55 µg/mL | >50 µg/mL
14 | CC(C)C[C@H](NC(=O)[C@H](CCCCN)NC(=O)[C@H](CC(C)C)NC(=O)[C@H](CC(C)C)NC(=O)[C@H](C)NC(=O)[C@@H](N)Cc1ccccc1)C(N)=O [compound 168] | 75 µg/mL (≈ 107 µM) | 100 µg/mL (≈ 142 µM) | >250 µg/mL | 150 µg/mL (≈ 213 µM)
15 | CC(C)C[C@H](NC(=O)[C@H](CCCCN)NC(=O)[C@H](C)NC(=O)[C@H](CC(C)C)NC(=O)[C@H](CC(C)C)NC(=O)[C@H](CCCCN)NC(=O)[C@H](C)NC(=O)[C@@H](N)Cc1ccccc1)C(=O)N[C@@H](C)C(=O)N[C@@H](CCCCN)C(=O)N[C@@H](C)C(=O)N[C@@H](CCCCN)C(=O)N[C@@H](C)C(N)=O [compound 95] | >50 µg/mL | >50 µg/mL | >50 µg/mL | >50 µg/mL
16 | FAKIIAKIAKKI-NH2 [compound 143] | INACT | INACT | INACT | INACT
17 | CC(C)C[C@H](NC(=O)[C@H](CC(C)C)NC(=O)[C@H](CCCCN)NC(=O)[C@H](CCCCN)NC(=O)[C@H](C)NC(=O)[C@H](CC(C)C)NC(=O)[C@H](CCCCN)NC(=O)[C@H](CCCCN)NC(=O)[C@H](C)NC(=O)[C@@H](N)Cc1ccccc1)C(N)=O [compound 59] | >50 µg/mL | >50 µg/mL | >50 µg/mL | >50 µg/mL
18 | CC(C)C[C@H](NC(=O)[C@H](CCCCN)NC(=O)[C@H](CCCCN)NC(=O)[C@H](Cc1c[nH]c2ccccc12)NC(=O)[C@@H](N)CCCCN)C(N)=O [compound 173] | >250 µg/mL | >250 µg/mL | >250 µg/mL | 150 µg/mL (≈ 214 µM)
19 | CC(C)C[C@H](NC(=O)[C@H](C)NC(=O)[C@H](CCCCN)NC(=O)[C@H](C)NC(=O)[C@H](CC(C)C)NC(=O)[C@H](CCCCN)NC(=O)[C@H](C)NC(=O)[C@H](CC(C)C)NC(=O)[C@H](CCCCN)NC(=O)[C@H](C)NC(=O)[C@H](CC(C)C)NC(=O)[C@H](CCCCN)NC(=O)[C@H](CCCCN)NC(=O)[C@H](C)NC(=O)[C@H](CC(C)C)NC(=O)[C@@H](N)CCCCN)C(N)=O [compound 159] | 10 µg/mL (≈ 5.86 µM) | 10 µg/mL (≈ 5.86 µM) | >250 µg/mL | 50 µg/mL (≈ 29.3 µM)
20 | FAFGKGIGKVGKKLL-NH2 [compound 133] | INACT | INACT | INACT | INACT
21 | CC(C)C[C@H](NC(=O)[C@H](C)NC(=O)[C@H](C)NC(=O)[C@H](CCCCN)NC(=O)[C@H](C)NC(=O)[C@H](CC(C)C)NC(=O)[C@H](CCCCN)NC(=O)[C@H](CCCCN)NC(=O)[C@H](C)NC(=O)[C@H](CC(C)C)NC(=O)[C@H](CCCCN)NC(=O)[C@H](CCCCN)NC(=O)[C@H](C)NC(=O)[C@@H](N)Cc1ccccc1)C(N)=O [compound 76] | 40 µg/mL (≈ 26.7 µM) | >55 µg/mL | >55 µg/mL | >50 µg/mL
